Experimental data reported in patent US6646006B2, “Enhancement of vascular function by modulation of endogenous nitric oxide production or activity” (The Board of Trustees of the Leland Stanford Junior …, priority 1993, dated 2003).

Columns and labels:
[1] = test system: hypercholesterolemic rabbits; assay: Histomorphometry and lesion surface area planimetry of thoracic aorta and left main coronary artery; type: in vivo, rabbit
From the text: (§1) Study design: (See, Cooke et al., 1992, supra) Male New Zealand white rabbits (n=49) were assigned to one of three treatment groups: 10 were fed with normal rabbit chow for ten weeks (Control); 19 received chow enriched with 1% cholesterol (Chol); and 20 received a 1% cholesterol diet supplemented with 2.25% L-arginine hydrochloride in the drinking water (Arg.). […] Subsequently the animals were sacrificed and the left main coronary artery and the thoracic aorta were harvested for studies of vascular reactivity and histomorphometry. In some animals, blood was collected for studies of platelet and monocyte reactivity.
By contrast, the intimal cross-sectional area (i.e. amount of atherosclerotic plaque) of vessels from hypercholesterolemic animals receiving L-arginine supplementation was reduced in comparison to those from animals receiving cholesterol diet alone. In the Arg animals the reduction in the intimal lesion was most pronounced in the ascending thoracic aorta and left main coronary artery.
Changes in lesion surface area: In a second series of studies, the extent of the thoracic aorta involved by lesions was examined. In hypercholesterolemic rabbits receiving vehicle (n=6) or L-arginine supplement (n=6), thoracic aortae (from left subclavian artery to diaphragm) were harvested after ten weeks of treatment, bisected longitudinally, and stained with oil-red O. Vessels were photographed and vessel and lesion surface area determined by planimetry. Approximately 40% of the total surface area was covered with plaque in thoracic aortae from hypercholesterolemic animals receiving vehicle, whereas in thoracic aortae from arginine-treated hypercholesterolemic animals, less than 10% of the surface area was covered with plaque (FIG. 1).

[2] = test system: forearm resistance vessels; assay: Forearm blood flow response to methacholine (plethysmography) after intravenous L-arginine; type: in vivo, human
From the text: The control subject population in this study included 11 normal volunteers comprising (10 males and 1 female). Their ages ranged from 31 to 49 and averaged 39±2 yr. There were 14 patients with hypercholesterolemia. Hypercholesterolemia was defined as a serum LDL cholesterol level greater than the 75th percentile adjusted for age and sex. These individuals included 11 males and 3 females whose ages ranged from 22 to 48 and averaged 38±2 years.
Under local anesthesia and sterile conditions, a polyethylene catheter was inserted into a brachial artery of each subject for determination of blood pressure and for infusion of drugs. A separate polyethylene catheter was inserted into the antecubital vein for infusion of L-arginine. Bilateral forearm blood flow was determined by venous occlusion strain gauge plethysmography, using calibrated mercury-in-silastic strain gauges, and expressed as ml/100 ml tissue per min.
To assess NO-dependent vasodilation, methacholine chloride (which induces the endothelium to release NO) was administered via the brachial artery. Forearm blood flow was measured during infusion of methacholine chloride at concentrations of 0.3, 3, and 10 μg/min each for 3 min.
After completion of the methacholine chloride infusions, all normal subjects and 10 individuals with hypercholesterolemia were given L-arginine intravenously over 30 minutes and then the methacholine infusions were repeated. D-arginine, the enantiomer of L-arginine, is not a precursor of NO. Thus, to ensure that any observed effects of L-arginine were due to its contribution to the synthesis of NO and not just secondary to its physiochemical properties, five individuals with hypercholesterolemia received D-arginine intravenously.

[3] = test system: hypercholesterolemic rabbits; assay: Regression of pre-existing atherosclerosis in hypercholesterolemic rabbits; type: in vivo, rabbit; conditions: for Lesion surface area of thoracic aortae: all arginine treated animals weeks 14-23 vs vehicle
From the text: This is clinically important if arginine is to be useful in the treatment of pre-existing atherosclerosis in humans. Accordingly, New Zealand white rabbits (n=85) received normal chow or 0.5% cholesterol chow for 10 weeks. Subsequently, half of the hypercholesterolemic rabbits were given 2.25% (W/V) L-arginine in their drinking water. Thoracic aortae were harvested at weeks 10, 14, 18, or 23. Rings of aorta were used to assess NO-dependent vasodilation to acetylcholine (ACh). Maximal relaxation to ACh in the hypercholesterolemic rabbits receiving vehicle (CHOL) became progressively attenuated from 53.4% (at week 10) to 17.4% (by week 23). […] By contrast, hypercholesterolemic animals receiving arginine (ARG) manifested improved endothelium-dependent relaxation associated with a reduction of plaque area at 14 and 18 weeks.

[4] = test system: hypercholesterolemic rabbits; assay: Organ chamber studies of isolated vessels from cholesterol-fed rabbits; type: in vivo, rabbit
From the text: as §1
By contrast, NO-dependent relaxations were attenuated in vessels harvested from hypercholesterolemic animals with a reduction in the maximal response to acetylcholine. In comparison, vessels harvested from hypercholesterolemic animals receiving L-arginine supplementation had improved NO-dependent relaxation to acetylcholine. In a separate study, the effect of chronic arginine supplementation to improve NO-dependent relaxation was confirmed in the hypercholesterolemic rabbit abdominal aorta.

[5] = test system: monocytes; assay: Functional binding assay: rabbit blood mononuclear cells to bEnd3 endothelial cells; type: in vivo; conditions: Arg vs vehicle-treated Chol animals
From the text: To determine if oral arginine supplementation affects monocyte adherence, blood was collected from rabbits fed normal chow (=6) a 1% cholesterol diet (=6), or a 1% cholesterol diet supplemented with L-arginine (=6), as described above. Mononuclear cells were purified from blood by Ficoll-paque density gradient centrifugation. In these preliminary studies, adhesion was examined of blood leukocytes to a transformed endothelial cell line, bEnd3 (mouse brain-derived polyoma middle T antigen transformed endothelial cells). The Bend3 cells display the morphology of endothelial cells, and like human endothelial cells are capable of uptake of acetylated low-density lipoprotein and express adhesion molecules in a cytokine-regulatable fashion. Cultured cells were grown to confluence in 0.5 cm^2 Lab-Tek chamber slides (MilesScientific) and treated with control medium or with LPS (1 mg/ml) or TNFα (25 U/ml) for 18 hours. Cultures were washed with fresh assay buffer, and low, medium, or high concentrations of leukocytes (0.75, 1.5, or 3×10^5 cells/ml, respectively) were added per well. Following a 30-minute incubation on a rocking platform at room temperature to allow binding, the slides were inverted and immersed in buffer containing 2% (v/v) glutaraldehyde, such that non-adherent cells were lost and adherent cells were fixed to the monolayer. […]

N=C(N)NCCC[C@H](N)C(=O)O [L-arginine]
atherosclerotic plaque in the left main coronary artery ([1]; hypercholesterolemic animals receiving arginine): essentially no atherosclerotic plaque developed
surface area of thoracic aorta covered with plaque ([1]; ten weeks, oil-red O, planimetry): less than 10%
intimal cross-sectional area (amount of atherosclerotic plaque) ([1]; vs cholesterol diet alone): reduced
augmentation of the vasodilation to methacholine chloride ([2]; hypercholesterolemic subjects, intravenous over 30 minutes): 25%
complications or side-effects of the infusions ([2]; intravenous): no complications or side-effects
vasodilation during methacholine chloride ([2]; normal subjects, intravenous over 30 minutes): did not potentiate
plaque area of total surface of thoracic aorta ([3]; 23 weeks, 3 of 7 ARG animals with persistent improvement): 5.4%
generation of vascular NO ([3]; ARG animals): increased generation
generation of vascular superoxide anion ([3]; ARG animals): reduced generation
plaque area ([3]; ARG animals at 14 and 18 weeks): reduction
endothelium-dependent relaxation ([3]; ARG animals, 14 and 18 weeks): improved
Lesion surface area of thoracic aortae [3]: significantly reduced
Lesion surface area of thoracic aortae ([3]; listed as arginine): reduced
NO-independent responses: maximal response or sensitivity to norepinephrine or nitroglycerin ([4]; differences between treatment groups): no differences
NO-dependent relaxation to acetylcholine ([4]; vs hypercholesterolemic animals without supplement): improved
adherence of monocytes to bEnd3 cells [5]: much less adherent
